Source: US6946459B2, “CRYSTALLINE FORMS OF 1S-[1ALPHA(2S*,3R*), 9ALPHA]6, 10-DIOXO-N-(2-ETHOXY-5-OXO-TETRAHYDRO-3-FURANYL)-9[[(1-ISOQUINOLYL) CARBONYL]AMINO]OCTAHYDRO-6H-PIRIDAZINO[1,2-A][1,2]DIAZEPIN-1-CARBOXAMIDE” (Aventis Pharma S. A., priority 1998, dated 2005)
“Also recorded” adds a separate entry of the source.

What was measured:
[1] = Sample left 7 days in a chamber at 96% relative humidity (32° C.); format: physicochemical; conditions: 7 days at 96% relative humidity; for Hygroscopicity (in words): compared with form A
Method: The non-hygroscopicity was confirmed by leaving a sample for 7 days in a chamber at 96% relative humidity (at 32° C.) An absorption of water of approximately 0.15% was observed. […] The same situation pertains regarding the amorphous form.

[2] = Hygroscopicity curve (water sorption isotherm), Dynamic Vapor Sorption DVS 1; format: physicochemical; design: Sorption / Desorption: unit not given here; conditions: for Hygroscopicity (in words): sorption cycle / general statement
Method: Hygroscopicity Curve (or Water Sorption Isotherm)
The water sorption isotherms were obtained using a Dynamic Vapor Sorption DVS 1 device (Surface Measurements System Ltd) at a constant temperature and under a more or less hydrated nitrogen atmosphere. The degree of relative humidity (RH) of the atmosphere was modified in stages. The passage from one stage to the next is carried out when the weight of the sample to be analyzed has reached a constant value.

[3] = RH 0.0 %, water sorption isotherm, constant temperature
[4] = RH 0.0 %, water sorption isotherm, constant temperature, water uptake (%)

Row | Desorption [2, 3] | Sorption [2, 4] | Desorption ([2]; RH 12.0 %) | Sorption ([2]; RH 12.0 %) | Desorption ([2]; RH 21.0 %) | Sorption ([2]; RH 21.0 %) | Desorption ([2]; RH 32.0 %) | Sorption ([2]; RH 32.0 %) | Desorption ([2]; RH 43.0 %) | Sorption ([2]; RH 43.0 %) | Desorption ([2]; RH 51.0 %) | Sorption ([2]; RH 51.0 %) | Desorption ([2]; RH 57.0 %) | Sorption ([2]; RH 57.0 %) | Desorption ([2]; RH 66.0 %) | Sorption ([2]; RH 66.0 %) | Desorption ([2]; RH 75.0 %) | Sorption ([2]; RH 75.0 %) | Desorption ([2]; RH 80.0 %) | Sorption ([2]; RH 80.0 %) | Compound | further results
1 | −0.20 | 0.00 | 1.43 | 0.67 | 2.09 | 0.97 | 2.58 | 1.29 | 2.94 | 1.60 | 3.19 | 1.83 | 3.35 | 2.03 | 3.61 | 2.37 | 3.90 | 2.90 | 4.12 | 3.71 | CCO[C@@H]1OC(=O)C[C@@H]1NC(=O)[C@@H]1CCCN2C(=O)CC[C@H](NC(=O)c3nccc4ccccc34)C(=O)N12 [AMORPHOUS, 1S-[1alpha(2R, 3S), 9alpha]6, 10-dioxo-N-(2-ethoxy-5-oxo-tetrahydro-3-furanyl)-9[[(1-isoquinolyl)carbonyl]amino]octahydro-6H-pyridazino[1,2-a][1, 2]diazepin-1-carboxamide, reference compound] | Hygroscopicity (in words) [1]: more hygroscopic; Desorption ([2]; RH 90.0 %): 4.94; Sorption ([2]; RH 90.0 %): 5.11; Desorption ([2]; RH 96.0 %): 5.93; Sorption ([2]; RH 96.0 %): 5.93; Hygroscopicity (in words) ([2]; listed as Compound (I)): hygroscopic
2 | 0.11 | 0.00 | 0.12 | 0.03 | 0.14 | 0.05 | 0.19 | 0.07 | 0.21 | 0.09 | 0.22 | 0.11 | 0.21 | 0.13 | 0.21 | 0.14 | 0.21 | 0.14 | 0.21 | 0.16 | CCO[C@@H]1OC(=O)C[C@@H]1NC(=O)[C@@H]1CCCN2C(=O)CC[C@H](NC(=O)c3nccc4ccccc34)C(=O)N12 [form A] | Absorption of water [1]: approximately 0.15%; Desorption ([2]; RH 90.0 %): 0.19; Sorption ([2]; RH 90.0 %): 0.14; Desorption ([2]; RH 96.0 %): 0.06; Sorption ([2]; RH 96.0 %): 0.06; Hygroscopicity (in words) [2]: absence of hygroscopicity; also recorded: not hygroscopic; Water uptake during the sorption cycle ([2]; whole sorption cycle, RH 0 to 96 %): < 0.2%
3 | −0.11 | 0.00 | 1.42 | 1.41 | 2.33 | 2.36 | 3.14 | 3.23 | 3.75 | 3.88 | 4.13 | 4.26 | 4.40 | 4.53 | 4.75 | 4.92 | 5.08 | 5.27 | 5.30 | 5.45 | CCO[C@@H]1OC(=O)C[C@@H]1NC(=O)[C@@H]1CCCN2C(=O)CC[C@H](NC(=O)c3nccc4ccccc34)C(=O)N12 [form B, 1S-[1alpha (2R, 3S), 9alpha]6,10-dioxo-N-(2-ethoxy-5-oxo-tetrahydro-3-furanyl)-9[[(1-isoquinolyl)carbony]amino]octahydro-6H-pyridazino[1,2-a][1,2]diazepin-1-carboxamide] | Absorption of water [1]: 7%; Hygroscopicity (in words) [1]: more hygroscopic; Desorption ([2]; RH 90.0 %): 5.96; Sorption ([2]; RH 90.0 %): 5.93; Desorption ([2]; RH 96.0 %): 6.86; Sorption ([2]; RH 96.0 %): 6.86
